Measured values from ChEMBL document CHEMBL1159222, “Varacin and three new marine antimicrobial polysulfides from the far-eastern ascidian Polycitor sp” (1995).

Key:
Assay type in all cases: functional
Conditions in all cases: read-out: IZ
Candida albicans [1] = test: Antifungal activity against Candida albicans at 10 ug
Candida albicans [2] = test: Antifungal activity against Candida albicans at 0.1 ug
Bacillus subtilis [3] = test: Antibacterial activity against Bacillus subtilis at 0.1 ug
Bacillus subtilis [4] = test: Antibacterial activity against Bacillus subtilis at 1 ug

Row | Compound | zone of inhibition at 10 µg/disc (Candida albicans [1]) | zone of inhibition at 0.1 µg/disc (Candida albicans [2]) | zone of inhibition at 0.1 µg/disc (Bacillus subtilis [3]) | zone of inhibition at 1 µg/disc (Bacillus subtilis [4])
1 | COc1cc(CCNC(C)=O)c2c(c1OC)SSSSS2 [VARACIN ACETATE] | 20 mm |  |  | 
2 | COc1cc(CCN)c2c(c1OC)SSSSS2 [VARACIN] |  | 20 mm | 20 mm | 20 mm
3 | COc1cc(CCNC(C)=O)c2c(c1OC)[S+]([O-])SS2 (configuration not stated) [VARACIN B ACETATE] | 20 mm |  |  | 
4 | COc1cc(CCNC(C)=O)c2c(c1OC)SS[S+]2[O-] (configuration not stated) [VARACIN C ACETATE] | 20 mm |  |  | 
5 | COc1cc(CCNC(C)=O)c2c(c1OC)SSS2 [VARACIN A ACETATE] | 20 mm |  |  | 
